Source: paper PMC9820444, “Design and Synthesis of Acridine-Triazole and Acridine-Thiadiazole Derivatives and Their Inhibitory Effect against Cancer Cells” (International Journal of Molecular Sciences, 2022)
Like-named read-outs stand apart in the source and are kept apart here. Marks after values point to notes of the source that are not given here.

Key:
[1] = test system: human foreskin fibroblasts (HFF); test: MTT antiproliferative assay, HFF; format: cell-based; settings: read-out: Effect against cell viability (IC50), HFF
Description: (§1) All newly synthesized acridinyl derivatives (4–6) were screened for their anticancer activities in comparison to the reference compounds, 5-FU and cis-platinum. Compounds 4–6 were tested for their in vitro antitumor activities against HFF, MGC-803, BEL-7404, NCI-H460, and T24 tumor cell lines, and human normal liver cells (LO2), and the results are shown in Table 1. Most of the compounds had strong selective potency against MGC-803 and T24 cancer cells. […] In the T24 cell line assay, many compounds, especially the series of compound 4, had significant activity against T24. This implies that there is a significant increase in potency after the introduction of the aroyl thiourea group. […] To our delight, most 1,2,4-triazolethiones (5) and 1,2,4-thiadiazoles (6) have low toxicity to LO2 compared with the positive control.
(§2) Test samples, including compounds 4–6 and commercial classical anticancer drugs (5-FU and cis-platinum), were screened for their anti-cancer activity against HFF human foreskin fibroblast cells, MGC-803 human gastric cancer cells, BEL-7404 human hepatocellular carcinoma cells, NCI-H460 human large cell carcinoma cells, and T24 human bladder carcinoma cells using the 3-(4,5-dimethylthiazol-2-yl)-2,5-diphenyltetrazoliumbromide (MTT) assay method cited in the literature. The initial concentration of all the test samples was 100 μg/mL, which was serially diluted in complete medium with ten-fold dilutions to give six concentrations per compound. Their cytotoxicity was determined in 96-well flat bottomed microtiter plates. All the test samples were tested in triplicate. The results were expressed as the drug concentration that inhibited cell growth by 50% as compared to the controls (IC50). The IC50 values were calculated from regression lines obtained from the percent cell growth inhibition plotted as a function of the logarithm of the dose.

[2] = test system: bladder cancer cells (T24); test: MTT antiproliferative assay, T24; format: cell-based, human; settings: read-out: Effect against cell viability (IC50), T24
Description: as §1, §2

[3] = test system: human normal liver cells (LO2); test: Cytotoxicity against normal liver cells LO2; format: cell-based; settings: MTT, read-out: Effect against cell viability (IC50), LO2
Description: as §1, §2

[4] = test system: hepatocellular carcinoma bel-7404 (BEL-7404); test: MTT antiproliferative assay, BEL-7404; format: cell-based, human; settings: read-out: Effect against cell viability (IC50), BEL-7404
Description: as §1, §2

[5] = test system: human gastric cancer cells-803 (MGC-803); test: MTT antiproliferative assay, MGC-803; format: cell-based; settings: read-out: Effect against cell viability (IC50), MGC-803
Description: as §1, §2

[6] = test system: large cell lung cancer cells (NCI-H460); test: MTT antiproliferative assay, NCI-H460; format: cell-based, human; settings: read-out: Effect against cell viability (IC50), NCI-H460
Description: as §1, §2

zebrafish embryos = test system: zebrafish embryos; parameters: mortality rate of zebrafish embryos: dose or concentration left out as unconfirmed; settings: for MAR (malformation rate) / MOR (mortality rate): zebrafish embryos 72 hpf
Description: In this experiment, 2% DMSO was used to dissolve the target products, and the abnormal rate (MAR) and mortality rate (MOR) of zebrafish embryos (72 hpf) were used for statistics.
The zebrafish embryos were collected at 6 hpf and randomly divided into naive control (embryos maintained in distilled water), vehicle control (embryos treated with 2% DMSO), and drug groups. Stock solutions of all drugs were prepared in 2% DMSO as a solubilizing agent and diluted to three concentrations (0.5 mg/mL, 1 mg/mL, and 2 mg/mL). Each group had 20 embryos per test concentration. […] Each compound was evaluated in three independent biological experiments.

Q: With COc1ccc2nc3ccccc3c(-n3c(-c4ccccc4)n[nH]c3=S)c2c1 [5b, 4-(2-methoxyacridin-9-yl)-5-phenyl-2,4-dihydro-3H-1,2,4-triazole-3-thione] as the compound, how does the IC50 ([1]; Homo sapiens, Fibroblast) read?
A: 53.6 ± 2.78 µM

Q: And the IC50 ([2]; Homo sapiens)?
A: 22.1 ± 1.85 µM

Q: What about the melting point of the same compound?
A: 259 to 261 °C

Q: And the IC50 ([3]; Homo sapiens)?
A: 58.3 ± 3.25 µM

Q: And the IC50 ([4]; Homo sapiens)?
A: 27.7 ± 2.97 µM

Q: What about the IC50 ([5]; Homo sapiens, MGC-803, MTT) of the same compound?
A: 15.8 ± 1.94 µM

Q: And the IC50 ([6]; Homo sapiens)?
A: 42.1 ± 3.74 µM

Q: With Cc1ccc2nc3ccccc3c(-n3c(-c4ccncc4)n[nH]c3=S)c2c1 [5f, 4-(2-methylacridin-9-yl)-5-(pyridin-4-yl)-2,4-dihydro-3H-1,2,4-triazole-3-thione] as the compound, how does the IC50 ([1]; Homo sapiens, Fibroblast) read?
A: 69.2 ± 2.16 µM

Q: And the IC50 ([2]; Homo sapiens)?
A: 15.7 ± 1.58 µM

Q: What about the melting point of the same compound?
A: 264 to 268 °C

Q: And the IC50 ([3]; Homo sapiens)?
A: 46.8 ± 2.93 µM

Q: And the IC50 ([4]; Homo sapiens)?
A: 44.2 ± 2.68 µM

Q: And the IC50 ([5]; Homo sapiens, MGC-803, MTT)?
A: 15.2 ± 1.08 µM

Q: What about the IC50 ([6]; Homo sapiens) of the same compound?
A: 58.8 ± 3.22 µM

Q: Which IC50 ([1]; Homo sapiens, Fibroblast) does the source give for Cc1ccc2nc3ccccc3c(-n3c(-c4ccccc4)n[nH]c3=S)c2c1 [5g, 4-(2-methylacridin-9-yl)-5-phenyl-2,4-dihydro-3H-1,2,4-triazole-3-thione] here?
A: 68.3 ± 2.74 µM

Q: And the IC50 ([2]; Homo sapiens)?
A: 19.4 ± 2.17 µM

Q: And the melting point?
A: 292 to 293 °C

Q: What about the IC50 ([3]; Homo sapiens) of the same compound?
A: 44.6 ± 2.35 µM

Q: What about the IC50 ([4]; Homo sapiens) of the same compound?
A: 20.5 ± 1.13 µM

Q: And the IC50 ([6]; Homo sapiens)?
A: 30.6 ± 2.21 µM

Q: With Cc1ccc2nc3ccccc3c(-n3c(-c4ccc([N+](=O)[O-])cc4)n[nH]c3=S)c2c1 [5i, 4-(2-methylacridin-9-yl)-5-(4-nitrophenyl)-2,4-dihydro-3H-1,2,4-triazole-3-thione] as the compound, how does the IC50 ([1]; Homo sapiens, Fibroblast) read?
A: 70.9 ± 2.99 µM

Q: What about the IC50 ([2]; Homo sapiens) of the same compound?
A: 14.3 ± 1.27 µM

Q: And the melting point?
A: 245 to 247 °C

Q: What about the IC50 ([3]; Homo sapiens) of the same compound?
A: > 100 µM

Q: And the IC50 ([4]; Homo sapiens)?
A: 31.7 ± 2.36 µM

Q: And the IC50 ([5]; Homo sapiens, MGC-803, MTT)?
A: 8.92 ± 0.99 µM

Q: And the IC50 ([6]; Homo sapiens)?
A: 28.3 ± 1.32 µM

Q: For COC1=CC2C(=Nc3nnc(-c4ccncc4)s3)c3ccccc3NC2C=C1 (stereo not shown) [6a, 7-methoxy-N-(5-(pyridin-4-yl)-1,3,4-thiadiazol-2-yl)-10,10a-dihydroacridin-9(8aH)-imine], which IC50 ([1]; Homo sapiens, Fibroblast) is on record?
A: 68.8 ± 1.87 µM

Q: And the IC50 ([2]; Homo sapiens)?
A: 10.2 ± 0.96 µM

Q: And the “MAR (malformation rate)” value (zebrafish embryos; 1 mg/mL)?
A: 15% ^b

Q: What about the “MOR (mortality rate)” value (zebrafish embryos; 1 mg/mL) of the same compound?
A: 0%

Q: What about the “MAR (malformation rate)” value (zebrafish embryos; 1.5 mg/mL) of the same compound?
A: 95% ^b

Q: What about the “MOR (mortality rate)” value (zebrafish embryos; 1.5 mg/mL) of the same compound?
A: 0%

Q: And the “MAR (malformation rate)” value (zebrafish embryos; 2 mg/mL)?
A: 90% ^b

Q: What about the “MOR (mortality rate)” value (zebrafish embryos; 2 mg/mL) of the same compound?
A: 5% ^b

Q: And the IC50 ([3]; Homo sapiens)?
A: 40.2 ± 2.74 µM

Q: What about the IC50 ([4]; Homo sapiens) of the same compound?
A: 19.2 ± 1.3 µM

Q: What about the IC50 ([5]; Homo sapiens, MGC-803, MTT) of the same compound?
A: 14.3 ± 1.29 µM

Q: And the IC50 ([6]; Homo sapiens)?
A: 25.3 ± 3.57 µM

Q: With COC1=CC2C(=Nc3nnc(-c4ccccc4)s3)c3ccccc3NC2C=C1 (stereo not shown) [6b, 7-methoxy-N-(5-phenyl-1,3,4-thiadiazol-2-yl)-10,10a-dihydroacridin-9(8aH)-imine] as the compound, how does the IC50 ([1]; Homo sapiens, Fibroblast) read?
A: 79.3 ± 2.48 µM

Q: What about the IC50 ([2]; Homo sapiens) of the same compound?
A: 49.4 ± 4.59 µM

Q: And the melting point?
A: 263 to 265 °C

Q: And the IC50 ([3]; Homo sapiens)?
A: > 100 µM

Q: What about the IC50 ([4]; Homo sapiens) of the same compound?
A: 32.3 ± 2.82 µM

Q: What about the IC50 ([5]; Homo sapiens, MGC-803, MTT) of the same compound?
A: 23.3 ± 1.97 µM

Q: And the IC50 ([6]; Homo sapiens)?
A: 47.5 ± 3.51 µM

Q: Which results are given for COC1=CC2C(=Nc3nnc(-c4ccc(Cl)cc4)s3)c3ccccc3NC2C=C1 (stereo not shown) [6e, 7-methoxy-N-(5-(4-chlorophenyl)-1,3,4-thiadiazol-2-yl)-10,10a-dihydroacridin-9(8aH)-imine]?
A: IC50 ([1]; Homo sapiens, Fibroblast): 44.7 ± 1.44 µM; IC50 ([2]; Homo sapiens): 14.9 ± 1.3 µM; MAR (malformation rate) (zebrafish embryos; 1 mg/mL): 10% ^c; MOR (mortality rate) (zebrafish embryos; 1 mg/mL): 10% ^c; MAR (malformation rate) (zebrafish embryos; 1.5 mg/mL): 70% ^c; MOR (mortality rate) (zebrafish embryos; 1.5 mg/mL): 30% ^c; MAR (malformation rate) (zebrafish embryos; 2 mg/mL): 35% ^c; MOR (mortality rate) (zebrafish embryos; 2 mg/mL): 65% ^c; IC50 ([3]; Homo sapiens): 33.6 ± 2.01 µM; IC50 ([4]; Homo sapiens): 21.3 ± 2.81 µM; IC50 ([5]; Homo sapiens, MGC-803, MTT): 9.95 ± 1.03 µM; IC50 ([5]; MTT): 9.01 ± 1.32 µM; IC50 ([6]; Homo sapiens): 27.9 ± 3.97 µM

Q: Which IC50 ([1]; Homo sapiens, Fibroblast) does the source give for CC1=CC2C(=Nc3nnc(-c4ccc([N+](=O)[O-])cc4)s3)c3ccccc3NC2C=C1 (stereo not shown) [6i, 7-methyl-N-(5-(4-nitrophenyl)-1,3,4-thiadiazol-2-yl)-10,10a-dihydroacridin-9(8aH)-imine] here?
A: 92 ± 2.99 µM

Q: What about the IC50 ([2]; Homo sapiens) of the same compound?
A: 29.9 ± 2.45 µM

Q: What about the “mortality rate of zebrafish embryos” value (zebrafish embryos) of the same compound?
A: 0%

Q: What about the “malformation rate of zebrafish embryos” value (zebrafish embryos; 2.0 mg.L^−1) of the same compound?
A: 25%

Q: What about the “MAR (malformation rate)” value (zebrafish embryos; 1 mg/mL) of the same compound?
A: 0%

Q: And the “MOR (mortality rate)” value (zebrafish embryos; 1 mg/mL)?
A: 0%

Q: And the “MAR (malformation rate)” value (zebrafish embryos; 1.5 mg/mL)?
A: 10% ^b

Q: And the “MOR (mortality rate)” value (zebrafish embryos; 1.5 mg/mL)?
A: 0%

Q: And the “MAR (malformation rate)” value (zebrafish embryos; 2 mg/mL)?
A: 25% ^c

Q: What about the “MOR (mortality rate)” value (zebrafish embryos; 2 mg/mL) of the same compound?
A: 0%

Q: What about the IC50 ([3]; Homo sapiens) of the same compound?
A: > 100 µM

Q: And the IC50 ([4]; Homo sapiens)?
A: 43.7 ± 2.36 µM

Q: And the IC50 ([5]; Homo sapiens, MGC-803, MTT)?
A: 22.9 ± 1.85 µM

Q: What about the IC50 ([6]; Homo sapiens) of the same compound?
A: 36.4 ± 3.15 µM

Q: Which results are given for N.N.[Cl][Pt][Cl] [cis-platinum, reference compound]?
A: IC50 [1]: 10.8 ± 0.34 µM; IC50 [2]: 9.13 ± 1.54 µM; IC50 [3]: 21.4 ± 1.25 µM; IC50 [4]: 10 ± 0.52 µM; IC50 ([5]; MTT): 16 ± 1.53 µM; IC50 [6]: 7.13 ± 1.24 µM
